# Laboratory results as given in patent US20120058999A1, “Substituted Tetrahydropyrrolopyrazine Compounds” (Gruenenthal GmbH, priority 2010, published 2012).
# Experiments:
# human B1R = target: T1, human B1R (Homo sapiens, UniProt P46663); experiment: Functional investigation on the bradykinin 1 receptor, cell-based fluorescent calcium-mobilization assay (FLIPR), human; settings: 10 μM test substance; CHO K1 cells transfected with human B1R gene; agonist Lys-Des-Arg9-bradykinin at EC80; % of maximum achievable inhibition
# T1 construct: expressed in transfected cells; host or cells: CHO K1 cells (stably transfected)
# T1 sequence (P46663 1-353): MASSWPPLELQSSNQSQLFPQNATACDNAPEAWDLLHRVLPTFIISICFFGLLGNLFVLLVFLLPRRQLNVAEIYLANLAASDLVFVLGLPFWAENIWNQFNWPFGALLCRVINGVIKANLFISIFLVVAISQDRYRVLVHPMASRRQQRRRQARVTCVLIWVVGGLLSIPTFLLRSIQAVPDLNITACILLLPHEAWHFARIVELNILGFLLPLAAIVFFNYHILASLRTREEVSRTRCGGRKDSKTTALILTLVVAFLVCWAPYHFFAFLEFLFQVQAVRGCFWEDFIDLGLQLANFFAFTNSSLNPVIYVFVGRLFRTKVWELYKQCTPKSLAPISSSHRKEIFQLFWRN
# Protocol: (§1) The agonistic or antagonistic action of substances can be quantified on the bradykinin 1 receptor (B1R) of the human and rat species with ectopically expressing cell lines (CHO K1 cells) and with the aid of a Ca2+-sensitive dye (Fluo-4) using a fluorescent imaging plate reader (FLIPR). The value in % activation is based on the Ca2+ signal after addition of Lys-Des-Arg9 bradykinin (0.5 nM) or Des-Arg9 bradykinin (100 nM). Antagonists lead to a suppression of the Ca2+ influx following administration of the agonist. The % inhibition in comparison with the maximum achievable inhibition is indicated.
# (§2) The agonistic or antagonistic action of substances can be determined on the bradykinin 1 receptor (B1R) of humans and rats by means of a cell-based fluorescent calcium-mobilization assay. According to this assay agonist-induced increase of intracellular free Ca^2+ is quantified by means of a Ca^2+-sensitive dye (Fluo-4 type, Molecular Probes Europe BV, Leiden, Netherlands), in a Fluorescent Imaging Plate Reader (FLIPR, Molecular Devices, Sunnyvale, USA) and/or the Novostar (BMG Labtech GmbH, Offenburg, Germany).
# (§3) Chinese hamster ovary cells (CHO K1 cells), which are stably transfected with the human B1R gene (hB1R cells), or with the B1R gene of rats (rB1R cells) are used. For functional investigations these cells are seeded into black 96-well plates with a clear bottom (BD Biosciences, Heidelberg, Germany or Greiner, Frickenhausen, Germany) in a density of 20,000-35,000 cells/well. The cells are incubated overnight in a humidified atmosphere at 37° C. and 5% CO2 in culture medium (hB1R cells: Nutrient Mixture Ham's F12, Gibco Invitrogen GmbH, Karlsruhe, Germany or DMEM, Sigma-Aldrich, Taufkirchen, Germany; rB1R cells: D-MEM/F12, Gibco Invitrogen GmbH, Karlsruhe, Germany) with 10 vol. % FBS (foetal bovine serum, Gibco Invitrogen GmbH, Karlsruhe, Germany). On the following day the cells are loaded with the Ca^2+-sensitive dye Fluo-4-AM (Molecular Probes Europe BV, Leiden, Netherlands):
# (§4) Method A: The medium of the cells is removed and cell plates are incubated with loading solution, which contains 2.13 μM Fluo-4-AM, 2.5 mM probenecid (Sigma-Aldrich, Taufkirchen, Germany), and 10 mM HEPES (Sigma-Aldrich, Taufkirchen, Germany) in HBSS buffer (Hank's buffered saline solution, Gibco Invitrogen GmbH, Karlsruhe, Germany) for 60 minutes at 37° C. After the plates are washed twice with HBSS buffer, HBSS buffer supplemented 0.1% BSA (bovine serum albumin; Sigma-Aldrich, Taufkirchen, Germany), 5.6 mM glucose and 0.05% gelatine (Merck KGaA, Darmstadt, Germany) is added. Cell plates are incubated for at least 20 minutes in the dark at room temperature before they are used for the Ca^2+ measurement in the FLIPR or Novostar. Method B: The plates are washed with buffer A (15 mM HEPES, 80 mM NaCl, 5 mM KCl, 1.2 mM CaCl2, 0.7 mM MgSO4, 2 mg/ml glucose, 2.5 mM probenecid) and subsequently loaded with buffer A containing 2.4 μM Fluo-4-AM and 0.025% pluronic F127 (Sigma-Aldrich, Taufkirchen, Germany) for 60 minutes at 37° C. Cell plates are washed twice with buffer A. Then, buffer A supplemented with 0.05% BSA and 0.05% gelatine is added and cell plates are incubated in the dark at room temperature for at least 20 minutes before measurement in the FLIPR or Novostar is started.
# (§5) The Ca^2+-dependent fluorescence is measured both before and after the addition of substances (λex=488 nm, λem=540 nm). For quantification of the effect the highest fluorescence intensity (FC, fluorescence counts) over time is given.
# (§6) The FLIPR protocol consists of two substance additions, done within the instrument while continuously monitoring the Ca^2+-dependent fluorescence at 540 nm. When the Novostar was used, one addition had to be done outside the instrument. First of all test substances (10 μM) are pipetted onto the cells and the intracellular Ca^2+ rise is compared with the control (hB1R: Lys-Des-Arg9-bradykinin >=50 nM; rB1R: Des-Arg9-bradykinin >=1 μM). […]
# rat B1R = target: T2, rat B1R (Rattus norvegicus, UniProt P97583); experiment: Functional investigation on the bradykinin 1 receptor, cell-based fluorescent calcium-mobilization assay (FLIPR), rat; settings: 10 μM test substance; CHO K1 cells transfected with rat B1R gene; agonist Des-Arg9-bradykinin at EC80; % of maximum achievable inhibition
# T2 construct: expressed in transfected cells; host or cells: CHO K1 cells (stably transfected)
# T2 sequence (P97583 1-337): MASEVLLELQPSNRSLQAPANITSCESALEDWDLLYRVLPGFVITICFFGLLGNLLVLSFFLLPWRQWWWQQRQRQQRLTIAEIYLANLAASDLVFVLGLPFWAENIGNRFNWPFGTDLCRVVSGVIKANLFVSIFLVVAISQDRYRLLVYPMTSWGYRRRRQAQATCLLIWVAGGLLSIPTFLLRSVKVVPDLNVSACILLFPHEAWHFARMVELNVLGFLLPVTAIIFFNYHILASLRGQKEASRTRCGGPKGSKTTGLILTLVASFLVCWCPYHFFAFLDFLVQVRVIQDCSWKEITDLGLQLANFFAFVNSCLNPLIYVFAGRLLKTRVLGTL
# Protocol: as §1, §2, §3, §4, §5, §6
Compound,inhibition at 10 µM (human B1R) [%],inhibition at 10 µM (rat B1R) [%]
"CN(C(=O)CCC1c2cccn2CCN1S(=O)(=O)c1cccc(C(F)(F)F)c1)C1CCCC(N2CCOCC2)C1 (stereo not shown) [CC-57, N-Methyl-N-(3-morpholin-4-yl-cyclohexyl)-3-[2-[[3-(trifluoromethyl)phenyl]sulfonyl]-1,2,3,4-tetrahydro-pyrrolo[1,2-a]pyrazin-1-yl]-propionamide]",39,
"COc1cc(C)c(S(=O)(=O)N2CCn3cccc3C2CCCC(=O)N(C)C2CCCC(N3CCN(C(C)C)CC3)C2)c(C)c1 (stereo not shown) [CC-51, N-[3-(4-Isopropyl-piperazin-1-yl)-cyclohexyl]-4-[2-[(4-methoxy-2,6-dimethyl-phenyl)sulfonyl]-1,2,3,4-tetrahydro-pyrrolo[1,2-a]pyrazin-1-yl]-N-methyl-butyramide]",99,
"COc1cc(C)c(S(=O)(=O)N2CCn3cccc3C2COCC(=O)N(C)[C@H]2CCC[C@@H](N3CCN(C)CC3)C2)c(C)c1 (relative stereo) [CC-01, 2-[[2-[(4-Methoxy-2,6-dimethyl-phenyl)sulfonyl]-1,2,3,4-tetrahydro-pyrrolo[1,2-a]pyrazin-1-yl]-methoxy]-N-methyl-N-[cis-3-(4-methyl-piperazin-1-yl)-cyclohexyl]-acetamide]",100,105
"COc1cc(C)c(S(=O)(=O)N2CCn3cccc3C2CCCC(=O)N(C)[C@H]2CCC[C@@H](N3CCN(C)CC3)C2)c(C)c1 (relative stereo) [CC-02, 4-[2-[(4-Methoxy-2,6-dimethyl-phenyl)sulfonyl]-1,2,3,4-tetrahydro-pyrrolo[1,2-a]pyrazin-1-yl]-N-methyl-N-[cis-3-(4-methyl-piperazin-1-yl)-cyclohexyl]-butyramide]",87,104
"COc1cc(C)c(S(=O)(=O)N2CCn3cccc3C2COCC(=O)N(C)C2CCC(N3CCN(C)CC3)CC2)c(C)c1 (stereo not shown) [SC-05, 2-[[2-[(4-Methoxy-2,6-dimethyl-phenyl)sulfonyl]-1,2,3,4-tetrahydro-pyrrolo[1,2-a]pyrazin-1-yl]-methoxy]-N-methyl-N-[4-(4-methyl-piperazin-1-yl)-cyclohexyl]-acetamide]",101,100
"COc1ccc2cc(S(=O)(=O)N3CCn4cccc4C3CC(=O)N(C)C3CCCC(N4CCN(C(C)C)CC4)C3)ccc2c1 (stereo not shown) [CC-52, N-[3-(4-Isopropyl-piperazin-1-yl)-cyclohexyl]-2-[2-[(6-methoxy-naphthalen-2-yl)sulfonyl]-1,2,3,4-tetrahydro-pyrrolo[1,2-a]pyrazin-1-yl]-N-methyl-acetamide]",100,
"Cc1cccc(Cl)c1S(=O)(=O)N1CCn2cccc2C1COCC(=O)N(C)[C@H]1CCC[C@@H](N2CCN(C)CC2)C1 (stereo partly drawn) [SC-02, 2-[[2-[(2-Chloro-6-methyl-phenyl)sulfonyl]-1,2,3,4-tetrahydro-pyrrolo[1,2-a]pyrazin-1-yl]-methoxy]-N-methyl-N-[(1S,3R)-3-(4-methyl-piperazin-1-yl)-cyclohexyl]-acetamide]",100,105
"CN1CCN([C@@H]2CCC[C@H](N(C)C(=O)CCC3c4cccn4CCN3S(=O)(=O)c3cccc(C(F)(F)F)c3)C2)CC1 (relative stereo) [CC-05, N-Methyl-N-[cis-3-(4-methyl-piperazin-1-yl)-cyclohexyl]-3-[2-[[3-(trifluoromethyl)phenyl]sulfonyl]-1,2,3,4-tetrahydro-pyrrolo[1,2-a]pyrazin-1-yl]-propionamide]",43,91
"CC(C)N1CCN(C2CCCC(N(C)C(=O)CCC3c4cccn4CCN3S(=O)(=O)c3cccc(C(F)(F)F)c3)C2)CC1 (stereo not shown) [CC-53, N-[3-(4-Isopropyl-piperazin-1-yl)-cyclohexyl]-N-methyl-3-[2-[[3-(trifluoromethyl)phenyl]sulfonyl]-1,2,3,4-tetrahydro-pyrrolo[1,2-a]pyrazin-1-yl]-propionamide]",87,
"COc1cc(C)c(S(=O)(=O)N2CCn3cccc3C2COCC(=O)N(C)C2CCCC(N3CCN(C(C)C)CC3)C2)c(C)c1 (stereo not shown) [CC-50, N-[3-(4-Isopropyl-piperazin-1-yl)-cyclohexyl]-2-[[2-[(4-methoxy-2,6-dimethyl-phenyl)sulfonyl]-1,2,3,4-tetrahydro-pyrrolo[1,2-a]pyrazin-1-yl]-methoxy]-N-methyl-acetamide]",99,
"COc1ccc2cc(S(=O)(=O)N3CCn4cccc4C3CC(=O)N(C)C3CCCC(N4CCOCC4)C3)ccc2c1 (stereo not shown) [CC-56, 2-[2-[(6-Methoxy-naphthalen-2-yl)sulfonyl]-1,2,3,4-tetrahydro-pyrrolo[1,2-a]pyrazin-1-yl]-N-methyl-N-(3-morpholin-4-yl-cyclohexyl)-acetamide]",99,
"COc1ccc2cc(S(=O)(=O)N3CCn4cccc4C3CC(=O)N[C@H]3CCC[C@@H](N4CCN(C)CC4)C3)ccc2c1 (relative stereo) [CC-09, 2-[2-[(6-Methoxy-naphthalen-2-yl)sulfonyl]-1,2,3,4-tetrahydro-pyrrolo[1,2-a]pyrazin-1-yl]-N-[cis-3-(4-methyl-piperazin-1-yl)-cyclohexyl]-acetamide]",100,
"COc1cc(C)c(S(=O)(=O)N2CCn3cccc3C2COCC(=O)N(C)C2CCCC(N3CCOCC3)C2)c(C)c1 (stereo not shown) [CC-54, 2-[[2-[(4-Methoxy-2,6-dimethyl-phenyl)sulfonyl]-1,2,3,4-tetrahydro-pyrrolo[1,2-a]pyrazin-1-yl]-methoxy]-N-methyl-N-(3-morpholin-4-yl-cyclohexyl)-acetamide]",98,
"COc1cc(C)c(S(=O)(=O)N2CCn3cccc3C2CCCC(=O)N(C)C2CCCC(N3CCOCC3)C2)c(C)c1 (stereo not shown) [CC-55, 4-[2-[(4-Methoxy-2,6-dimethyl-phenyl)sulfonyl]-1,2,3,4-tetrahydro-pyrrolo[1,2-a]pyrazin-1-yl]-N-methyl-N-(3-morpholin-4-yl-cyclohexyl)-butyramide]",88,
